In ChEMBL document CHEMBL5321211, “Synthesis and evaluation of anti-yellow fever virus activity of new 6-aryl-3-R-amino-1,2,4-triazin-5(4H)-ones” (Eur J Med Chem, 2023):
pEC50: −log10 of the molar value. Converted amounts (≈) assume the structure as drawn.

test system: Yellow fever virus; assay: Antiviral activity against Yellow fever virus 17D infected in African green monkey Vero assessed as reduction in cytopathic effect preincubated with compound for 5 mins followed by viral infection and measured at 72 to 120 hrs by neutral red uptake assay; assay type: functional, organism-based; settings: not given

CCOc1ccc(Nc2nnc(Cc3ccc(C)cc3)c(=O)[nH]2)cc1 and CCOC(=O)c1ccc(Nc2nnc(Cc3ccc(C)cc3)c(=O)[nH]2)cc1 cannot be ordered by EC50: over 100 µg/mL for the first, over 100 µg/mL for the second.

Cc1ccc(Cc2nnc(Nc3ccc(F)cc3)[nH]c2=O)cc1 and Cc1ccc(Cc2nnc(Nc3cccc(F)c3)[nH]c2=O)cc1 are the same in EC50: 1 µg/mL (≈ 3.22 µM) for the first, 1 µg/mL (≈ 3.22 µM) for the second.

First: Cc1ccc(Cc2nnc(NC3CCCCC3)[nH]c2=O)cc1
Second: Cc1ccc(Cc2nnc(Nc3ccccc3)[nH]c2=O)cc1
The EC50 of the first is 4.8-fold higher: 30 µg/mL (≈ 101 µM) for the first, 6.2 µg/mL (≈ 21.2 µM) for the second.

Going from COc1ccc(Nc2nnc(Cc3ccc(C(C)C)cc3)c(=O)[nH]2)cc1OC to COc1ccc(Nc2nnc(Cc3ccc(C)cc3)c(=O)[nH]2)cc1OC, the EC50 falls from over 38 µg/mL to 11 µg/mL (≈ 31.2 µM).

Compared with CCOc1ccccc1Nc1nnc(Cc2ccc(C)cc2)c(=O)[nH]1, Cc1ccc(Cc2nnc(Nc3ccccc3C)[nH]c2=O)cc1 is lower in EC50: over 100 µg/mL for the first, 18 µg/mL (≈ 58.8 µM) for the second.

First: Cc1cccc(Nc2nnc(Cc3ccc(F)cc3)c(=O)[nH]2)c1C
Second: Cc1ccc(Cc2nnc(Nc3cc(C)ccc3C)[nH]c2=O)cc1
The EC50 of the first is higher: over 100 µg/mL for the first, 23 µg/mL (≈ 71.8 µM) for the second.

First: Cc1ccc(Cc2nn3c(=O)c4ccccc4nc3[nH]c2=O)cc1
Second: Cc1ccc(Cc2nnc(Nc3cccc(C)c3)[nH]c2=O)cc1
The EC50 of the first is higher: over 100 µg/mL for the first, 0.48 µg/mL (≈ 1.57 µM) for the second.

CC(=O)Nc1ccc(Nc2nnc(Cc3ccc(C)cc3)c(=O)[nH]2)cc1 and COC(=O)c1ccc(Nc2nnc(Cc3ccc(C)cc3)c(=O)[nH]2)cc1 cannot be ordered by EC50: over 100 µg/mL for the first, over 100 µg/mL for the second.

In the case of COc1ccc(Nc2nnc(Cc3ccc(C)cc3)c(=O)[nH]2)c(OC)c1, the EC50 was 1 µg/mL (≈ 2.84 µM).

test system: Yellow fever virus; assay: Antiviral activity against Yellow fever virus 17D infected in African green monkey Vero assessed as reduction in cytopathic effect preincubated with compound for 5 mins followed by viral infection and measured at 72 to 120 hrs by visual analysis; assay type: functional, organism-based; settings: not given

Going from Cc1ccc(Cc2nnc(Nc3ccc(F)cc3)[nH]c2=O)cc1 to Cc1ccc(Cc2nnc(Nc3cccc(F)c3)[nH]c2=O)cc1, the EC50 falls from 10 µg/mL (≈ 32.2 µM) to 6.2 µg/mL (≈ 20 µM) (1.6-fold).

Cc1ccc(Cc2nnc(Nc3cccc(C)c3)[nH]c2=O)cc1 and Cc1ccc(Cc2nnc(Nc3ccccc3)[nH]c2=O)cc1 are within 1.5-fold of each other in EC50: 10 µg/mL (≈ 32.6 µM) for the first, 7.4 µg/mL (≈ 25.3 µM) for the second.

Molecule COc1ccc(Nc2nnc(Cc3ccc(C)cc3)c(=O)[nH]2)c(OC)c1 has an EC50 of 3.5 µg/mL (≈ 9.93 µM).

test system: Yellow fever virus; assay: Antiviral activity against Yellow fever virus 17D infected in African green monkey Vero assessed as reduction in virus yield preincubated with compound for 5 mins followed by viral infection and measured at 72 to 120 hrs; assay type: functional; settings: time 4325-7205 min

Compared with Cc1ccc(Cc2nnc(Nc3cccc(F)c3)[nH]c2=O)cc1, Cc1ccc(Cc2nnc(Nc3cccc(C)c3)[nH]c2=O)cc1 is 2.4-fold higher in EC90: 65 µg/mL (≈ 209 µM) for the first, 158 µg/mL (≈ 516 µM) for the second.

COc1ccc(Nc2nnc(Cc3ccc(C)cc3)c(=O)[nH]2)c(OC)c1 gave an EC90 of 28 µg/mL (≈ 79.5 µM).

test system: Yellow fever virus; assay: Antiviral activity against Yellow fever virus 17D infected in African green monkey Vero assessed as reduction in cytopathic effect preincubated with compound for 5 mins followed by viral infection and measured at 7 days; assay type: functional, organism-based; settings: not given

Going from Cc1ccc(Cc2nnc(Nc3cccc(F)c3)[nH]c2=O)cc1 to Cc1ccc(Cc2nnc(Nc3cccc(C)c3)[nH]c2=O)cc1, the EC50 rises from 6.2 µg/mL (≈ 20 µM) to 10 µg/mL (≈ 32.6 µM) (1.6-fold).

Molecule COc1ccc(Nc2nnc(Cc3ccc(C)cc3)c(=O)[nH]2)c(OC)c1 has an EC50 of 3.5 µg/mL (≈ 9.93 µM).

test system: not listed separately; assay: Cytotoxicity against African green monkey Vero cells assessed as inhibition of cell growth by neutral red uptake assay; assay type: toxicity, cell-based, Chlorocebus sabaeus; settings: not given

CCOc1ccc(Nc2nnc(Cc3ccc(C)cc3)c(=O)[nH]2)cc1 and CCOC(=O)c1ccc(Nc2nnc(Cc3ccc(C)cc3)c(=O)[nH]2)cc1 cannot be ordered by IC50: over 100 µg/mL for the first, over 100 µg/mL for the second.

Cc1ccc(Cc2nnc(Nc3ccc(F)cc3)[nH]c2=O)cc1 and Cc1ccc(Cc2nnc(Nc3cccc(F)c3)[nH]c2=O)cc1 cannot be ordered by IC50: over 100 µg/mL for the first, over 100 µg/mL for the second.

Cc1ccc(Cc2nnc(NC3CCCCC3)[nH]c2=O)cc1 and Cc1ccc(Cc2nnc(Nc3ccccc3)[nH]c2=O)cc1 cannot be ordered by IC50: over 100 µg/mL for the first, over 100 µg/mL for the second.

Going from COc1ccc(Nc2nnc(Cc3ccc(C(C)C)cc3)c(=O)[nH]2)cc1OC to COc1ccc(Nc2nnc(Cc3ccc(C)cc3)c(=O)[nH]2)cc1OC, the IC50 falls from over 38 µg/mL to 18 µg/mL (≈ 51.1 µM).

CCOc1ccccc1Nc1nnc(Cc2ccc(C)cc2)c(=O)[nH]1 and Cc1ccc(Cc2nnc(Nc3ccccc3C)[nH]c2=O)cc1 cannot be ordered by IC50: over 100 µg/mL for the first, over 100 µg/mL for the second.

Cc1cccc(Nc2nnc(Cc3ccc(F)cc3)c(=O)[nH]2)c1C and Cc1ccc(Cc2nnc(Nc3cc(C)ccc3C)[nH]c2=O)cc1 cannot be ordered by IC50: over 100 µg/mL for the first, over 100 µg/mL for the second.

Cc1ccc(Cc2nn3c(=O)c4ccccc4nc3[nH]c2=O)cc1 and Cc1ccc(Cc2nnc(Nc3cccc(C)c3)[nH]c2=O)cc1 cannot be ordered by IC50: over 100 µg/mL for the first, over 100 µg/mL for the second.

CC(=O)Nc1ccc(Nc2nnc(Cc3ccc(C)cc3)c(=O)[nH]2)cc1 and COC(=O)c1ccc(Nc2nnc(Cc3ccc(C)cc3)c(=O)[nH]2)cc1 cannot be ordered by IC50: over 100 µg/mL for the first, over 100 µg/mL for the second.

COc1ccc(Nc2nnc(Cc3ccc(C)cc3)c(=O)[nH]2)c(OC)c1 gave an IC50 of over 100 µg/mL.

test system: not listed separately; assay: Selectivity index, ratio of IC50 for cytotoxicity against African green monkey Vero cells assessed as inhibition of cell growth by neutral red uptake assay to EC50 for antiviral activity against Yellow fever virus 17D infected in African green monkey Vero assessed as reduction in cytopathic effect; assay type: toxicity, cell-based; settings: read-out: Ratio IC50/EC50

Cc1ccc(Cc2nnc(Nc3ccc(F)cc3)[nH]c2=O)cc1 and Cc1ccc(Cc2nnc(Nc3cccc(F)c3)[nH]c2=O)cc1 cannot be ordered by selectivity ratio: over 14 for the first, over 14 for the second.

Cc1ccc(Cc2nnc(NC3CCCCC3)[nH]c2=O)cc1 and Cc1ccc(Cc2nnc(Nc3ccccc3)[nH]c2=O)cc1 cannot be ordered by selectivity ratio: over 3.3 for the first, over 7.1 for the second.

Cc1ccc(Cc2nnc(Nc3ccccc3C)[nH]c2=O)cc1 and Cc1ccc(Cc2nnc(Nc3cc(C)ccc3C)[nH]c2=O)cc1 cannot be ordered by selectivity ratio: over 5.6 for the first, over 4.3 for the second.

First: COc1ccc(Nc2nnc(Cc3ccc(C)cc3)c(=O)[nH]2)cc1OC
Second: COc1ccc(Nc2nnc(Cc3ccc(C)cc3)c(=O)[nH]2)c(OC)c1
The selectivity ratio of the first is lower: 1.6 for the first, over 17 for the second.

Molecule Cc1ccc(Cc2nnc(Nc3cccc(C)c3)[nH]c2=O)cc1 has a selectivity ratio of over 29.

test system: not listed separately; assay: Cytotoxicity against African green monkey Vero cells assessed as inhibition of cell growth by visual analysis; assay type: toxicity, cell-based, Chlorocebus sabaeus; settings: not given

Cc1ccc(Cc2nnc(Nc3ccc(F)cc3)[nH]c2=O)cc1 and Cc1ccc(Cc2nnc(Nc3cccc(F)c3)[nH]c2=O)cc1 are the same in IC50: 51 µg/mL (≈ 164 µM) for the first, 51 µg/mL (≈ 164 µM) for the second.

Compared with Cc1ccc(Cc2nnc(Nc3cccc(C)c3)[nH]c2=O)cc1, Cc1ccc(Cc2nnc(Nc3ccccc3)[nH]c2=O)cc1 is 3.6-fold lower in IC50: 58 µg/mL (≈ 189 µM) for the first, 16 µg/mL (≈ 54.7 µM) for the second.

COc1ccc(Nc2nnc(Cc3ccc(C)cc3)c(=O)[nH]2)c(OC)c1 gave an IC50 of 58 µg/mL (≈ 165 µM).

test system: not listed separately; assay: Selectivity index, ratio of IC50 for cytotoxicity against African green monkey Vero cells assessed as inhibition of cell growth by visual analysis to EC50 for antiviral activity against Yellow fever virus 17D infected in African green monkey Vero assessed as reduction in cytopathic effect; assay type: toxicity, cell-based; settings: read-out: Ratio IC50/EC50

First: Cc1ccc(Cc2nnc(Nc3ccc(F)cc3)[nH]c2=O)cc1
Second: Cc1ccc(Cc2nnc(Nc3cccc(F)c3)[nH]c2=O)cc1
The selectivity ratio of the first is lower: 5.1 for the first, 8.2 for the second.

First: Cc1ccc(Cc2nnc(Nc3ccccc3)[nH]c2=O)cc1
Second: COc1ccc(Nc2nnc(Cc3ccc(C)cc3)c(=O)[nH]2)c(OC)c1
The selectivity ratio of the first is lower: 2.2 for the first, 17 for the second.

test system: Yellow fever virus; assay: Antiviral activity against Yellow fever virus 17D infected in African green monkey Vero assessed as reduction in cytopathic effect preincubated with compound for 5 mins followed by viral infection and measured at 72 to 120 hrs; assay type: functional, organism-based; settings: not given

Compared with Cc1ccc(Cc2nnc(Nc3cccc(F)c3)[nH]c2=O)cc1, Cc1ccc(Cc2nnc(Nc3cccc(C)c3)[nH]c2=O)cc1 is 0.22 log units lower in pEC50: 4.70 for the first, 4.48 for the second. The first is the more potent here.

Work on COc1ccc(Nc2nnc(Cc3ccc(C)cc3)c(=O)[nH]2)c(OC)c1 yielded a pEC50 of 5.00.

test system: not listed separately; assay: Selectivity index, ratio of CC50 for cytotoxicity against African green monkey Vero cells to EC50 for antiviral activity against Yellow fever virus 17D infected in African green monkey Vero assessed as reduction in cytopathic effect; assay type: toxicity, cell-based; settings: read-out: Ratio CC50/EC50

Compared with Cc1ccc(Cc2nnc(Nc3cccc(F)c3)[nH]c2=O)cc1, Cc1ccc(Cc2nnc(Nc3cccc(C)c3)[nH]c2=O)cc1 is lower in selectivity ratio: over 53 for the first, 23 for the second.

With COc1ccc(Nc2nnc(Cc3ccc(C)cc3)c(=O)[nH]2)c(OC)c1 the selectivity ratio was 51.
